Assay [1] has as its target T1, FAP (Homo sapiens, UniProt Q12884).
T1 sequence (Q12884 1-760): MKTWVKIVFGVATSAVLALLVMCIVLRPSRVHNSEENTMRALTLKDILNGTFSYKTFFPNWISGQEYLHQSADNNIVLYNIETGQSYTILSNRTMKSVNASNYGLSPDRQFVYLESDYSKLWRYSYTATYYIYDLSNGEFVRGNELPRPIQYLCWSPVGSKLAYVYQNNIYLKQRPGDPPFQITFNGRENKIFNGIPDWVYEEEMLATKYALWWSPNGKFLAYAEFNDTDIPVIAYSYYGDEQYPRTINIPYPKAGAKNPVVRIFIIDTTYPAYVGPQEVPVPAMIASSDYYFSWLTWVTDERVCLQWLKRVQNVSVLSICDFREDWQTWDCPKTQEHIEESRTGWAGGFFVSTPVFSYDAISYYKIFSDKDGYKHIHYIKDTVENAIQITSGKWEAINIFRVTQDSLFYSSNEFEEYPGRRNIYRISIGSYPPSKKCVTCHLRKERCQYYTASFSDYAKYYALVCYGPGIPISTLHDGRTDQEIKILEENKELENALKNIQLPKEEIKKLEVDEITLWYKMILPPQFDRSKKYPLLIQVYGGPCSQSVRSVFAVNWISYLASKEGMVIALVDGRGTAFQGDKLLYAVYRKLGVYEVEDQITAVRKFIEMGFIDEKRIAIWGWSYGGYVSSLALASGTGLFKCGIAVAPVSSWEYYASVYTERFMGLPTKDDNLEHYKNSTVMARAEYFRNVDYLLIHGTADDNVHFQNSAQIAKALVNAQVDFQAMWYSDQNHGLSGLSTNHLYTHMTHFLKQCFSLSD
In words: In vitro inhibition assay on human FAP (Z-GP-AMC substrate). The assay is classed as biochemical. The following applies: enzymatic assay; 20 µM Z-GP-AMC, 20 nM FAP; unit inferred. The protocol:
(§1) Enzymatic activity of human FAP (hFAP) and mouse FAP (mFAP) on the Z-GP-AMC substrate was measured at room temperature on a Hidex microplate reader by monitoring the fluorescence at an excitation wavelength of 360 nm and an emission wavelength of 465 nm. The reaction mixture contained 20 µM substrate, 20 nM FAP, assay buffer (50 mM Tris, 100 mM NaCl, 1 mM EDTA, pH 7.4) and tested compound (serial dilution from 10^-6 to 10^-12) in a total volume of 50 µL.

For assay [2], the target named is T1, FAP. Nature of the assay: Competitive binding assay against [111In]In-FAPI-46 in HT-1080.hFAP cells. Also on record: expressed in transfected cells; host or cells: HT-1080.hFAP cells. Particulars: competition with [111In]In-FAPI-46 in HT-1080.hFAP cells, 37 °C, 1 h; unit inferred. As for the experimental part:
The U-87 MG glioblastoma was cultured at 37 °C and 5% CO2 in Dulbecco's Modified Eagle Medium (DMEM) supplemented with 10 % (v/v) fetal calf serum. HT-1080.hFAP cells were kept in culture in DMEM medium supplemented with fetal bovine serum (10%, FBS) and antibiotic antimycotic (1%, AA) at 37 °C and 5% CO2. For passaging, cells were detached using Trypsin-EDTA 0.05% when reaching 90% confluence and re-seeded at a dilution of 1:4.
Competition binding experiments were conducted by incubation of the [^111In]In-FAPI-46 radioligand with increasing concentrations of eFAP compound in HT-1080.hFAP cells at 37 °C for 1 h. Cells were then washed three times with binding buffer and lysed. The cell-associated radioactivity was measured in a γ-counter. The IC50 values were calculated by fitting the data by non-linear regression using GraphPad Prism.

A further assay has as its target T2, murine FAP (Mus musculus, UniProt P97321).
T2 sequence (P97321 1-761): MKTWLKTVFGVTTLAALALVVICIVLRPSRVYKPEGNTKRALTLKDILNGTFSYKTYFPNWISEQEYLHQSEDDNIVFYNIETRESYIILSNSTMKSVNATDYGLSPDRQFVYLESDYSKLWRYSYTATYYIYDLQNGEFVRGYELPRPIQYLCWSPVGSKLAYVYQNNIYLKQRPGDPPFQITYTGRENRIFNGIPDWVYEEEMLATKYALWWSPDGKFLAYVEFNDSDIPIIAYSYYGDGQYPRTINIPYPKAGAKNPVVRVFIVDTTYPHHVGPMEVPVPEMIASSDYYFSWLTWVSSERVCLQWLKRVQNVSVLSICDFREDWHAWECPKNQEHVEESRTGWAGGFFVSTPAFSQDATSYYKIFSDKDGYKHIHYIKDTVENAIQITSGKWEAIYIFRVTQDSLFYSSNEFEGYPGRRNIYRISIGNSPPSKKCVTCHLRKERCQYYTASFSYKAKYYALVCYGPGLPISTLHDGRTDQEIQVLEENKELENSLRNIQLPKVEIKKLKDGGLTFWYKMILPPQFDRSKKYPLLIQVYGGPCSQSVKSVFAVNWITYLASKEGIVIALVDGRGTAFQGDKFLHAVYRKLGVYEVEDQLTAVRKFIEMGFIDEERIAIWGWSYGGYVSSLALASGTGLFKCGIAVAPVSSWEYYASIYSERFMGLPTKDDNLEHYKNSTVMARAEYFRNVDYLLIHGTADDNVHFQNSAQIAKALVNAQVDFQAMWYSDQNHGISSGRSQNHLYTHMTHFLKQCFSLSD
In words: In vitro inhibition assay on mouse FAP (Z-GP-AMC substrate). The assay is classed as biochemical. Particulars: enzymatic assay; 20 µM Z-GP-AMC, 20 nM FAP; unit inferred. The protocol:
as §1

The structures appear in SMILES notation.

The IC50 is the midpoint of a concentration-inhibition curve. For the compound `CN(CCCN1CCN(C(=O)CN2CCN(CC(=O)O)CCN(CC(=O)O)CCN(CC(=O)O)CC2)CC1)c1ccc2nccc(C(=O)NCC(=O)N3CC(F)(F)C[C@H]3C#N)c2c1` [FAPI-46, reference compound], the figures for the IC50 at FAP [1], on FAP [2] and against murine FAP were 2.7 ± 1.7 nM, 1.6 ± 0.3 nM and 15 ± 2 nM, respectively.

Source of the values: patent EP4342890A1, “PLATFORM AND SCAFFOLD FOR FAP TARGETING AGENTS” (Erasmus University Rotterdam Medical Center, priority 2022, dated 2024).
